According to the supplement of paper PMC10307832:

Legend:
Dactolisib + Foretinib = compound: Cn1c(=O)n(-c2ccc(C(C)(C)C#N)cc2)c2c3cc(-c4cnc5ccccc5c4)ccc3ncc21 [Dactolisib] + COc1cc2c(Oc3ccc(NC(=O)C4(C(=O)Nc5ccc(F)cc5)CC4)cc3F)ccnc2cc1OCCCN1CCOCC1 [Foretinib] (partner 0.25 µM); assay: relative viability (nuclei count vs DMSO), 5 days (fraction); higher = more cells survive
Procedure, shortened: (§1)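 Relative viability equals treated-well nuclei counts divided by vehicle-well nuclei counts. Counts came from 4× images of lung cancer cell lines grown in 1536-well plates for 5 days after pin-tool dosing on the day after seeding. Dosing used one drug alone or a fixed anchor-drug dose plus five library-drug doses (not always all listed) in √10 steps, and values are medians of duplicate plates.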

AZ505 + Navitoclax = compound: C1CCC(CC1)N(CCNCCC2=C3C(=C(C=C2)O)NC(=O)CO3)C(=O)CCNCCC4=CC(=C(C=C4)Cl)Cl [AZ505] + CC1(C)CCC(c2ccc(Cl)cc2)=C(CN2CCN(c3ccc(C(=O)NS(=O)(=O)c4ccc(N[C@H](CCN5CCOCC5)CSc5ccccc5)c(S(=O)(=O)C(F)(F)F)c4)cc3)CC2)C1 [Navitoclax] (partner 0.5 µM); assay: as above
Procedure, shortened: as §1

Cell Line | relative viability (Dactolisib + Foretinib; first compound 0.002 µM) | relative viability (Dactolisib + Foretinib; first compound 0.006325 µM) | relative viability (Dactolisib + Foretinib; first compound 0.02 µM) | relative viability (Dactolisib + Foretinib; first compound 0.06325 µM) | relative viability (Dactolisib + Foretinib; first compound 0.2 µM) | relative viability (AZ505 + Navitoclax; first compound 0.08 µM) | relative viability (AZ505 + Navitoclax; first compound 0.253 µM) | relative viability (AZ505 + Navitoclax; first compound 0.8 µM) | relative viability (AZ505 + Navitoclax; first compound 2.53 µM) | relative viability (AZ505 + Navitoclax; first compound 8 µM)
PC-14 | 0.982 | 0.97 | 0.973 | 0.592 | 0.399 | 0.999 | 1.07 | 0.974 | 0.95 | 0.997
NCI-H1437 | 1.37 | 1.28 | 1.25 | 1.24 | 1.34 | 1.03 | 1.14 | 1.06 | 1.07 | 1.08
NCI-H460 | 1.03 | 1 | 1.03 | 0.493 | 0.407 | 1.02 | 1.19 | 0.965 | 1.11 | 1.2
NCI-H1666 | 0.968 | 0.993 | 0.987 | 0.791 | 0.762 | 0.969 | 1.06 | 0.99 | 0.896 | 0.894
SW 900 | 1.03 | 0.828 | 0.832 | 0.576 | 0.3 | – | – | – | – | –
NCI-H1651 | 0.918 | 0.782 | 0.561 | 0.321 | 0.345 | 1.06 | 1.07 | 1.03 | 1.12 | 1.01
NCI-H1755 | 0.903 | 0.924 | 0.936 | 0.676 | 0.691 | 0.949 | 1.06 | 0.967 | 1.01 | 0.971
NCI-H661 | 1.04 | 1.01 | 0.977 | 0.439 | 0.459 | – | – | – | – | –
HARA | 1.12 | 0.878 | 0.771 | 0.763 | 0.225 | 1.14 | 1.12 | 1.12 | 1.07 | 1.08
NCI-H596 | 0.83 | 0.809 | 0.473 | 0.316 | 0.242 | 0.862 | 0.806 | 0.597 | 0.803 | 0.87
NCI-H1563 | 0.919 | 0.885 | 0.913 | 0.654 | 0.651 | – | – | – | – | –
NCI-H23 | 1.17 | 0.997 | 0.69 | 0.456 | 0.413 | 0.71 | – | 0.849 | 0.819 | 0.694
A549 | 1.03 | 0.84 | 0.678 | 0.202 | 0.21 | 1.2 | 1.23 | 1.14 | 1.2 | 1.32
LCLC-97TM1 | 1.05 | 0.923 | 0.688 | 0.668 | 0.367 | 0.446 | 0.521 | 0.902 | 0.735 | 0.694
EPLC-272H | 0.623 | 0.491 | 0.467 | 0.308 | 0.236 | 1.07 | 0.967 | 1.08 | 0.934 | 1.06
NCI-H2342 | 1.1 | 0.96 | 0.855 | 0.679 | 0.525 | – | – | – | – | –
NCI-H1915 | 1.19 | 1.06 | 1.08 | 0.832 | 0.467 | 0.749 | 0.781 | 0.733 | 0.783 | 0.763
NCI-H1623 | 0.907 | 0.882 | 0.768 | 0.596 | 0.418 | – | – | – | – | –
NCI-H358 | 0.738 | 0.769 | 0.623 | 0.312 | 0.165 | – | – | – | – | –
